Assays:
SETVI Foxtail, Green [1] = assay: Postemergence herbicidal evaluation, SETVI; type: in vivo, Setaria viridis, (L.) Beau; parameters: scale not given here; conditions: postemergence spray, rated about two-three weeks after treatment
How it was run: (§1)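 Visual injury rating ~2–3 wk post-spray; replicate tests averaged. Two-week-old seedlings; foliar spray at 40 psi; 0.006–0.400 kg ai/ha in 80/20 acetone/water + 1.0% methylated seed oil.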

GLXMAW Soybean, Williams [2] = assay: Preemergence herbicidal evaluation, GLXMAW; type: in vivo, Glycine max, (L.) Merr. cv Williams; parameters: scale not given here; conditions: preemergence
How it was run: (§2)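 Visual ratings were taken four to five weeks after application. Before that, cups sown with seed in potting soil received a spray of compound dissolved in aqueous acetone, equivalent to about 0.013 to 0.800 kg/ha, and stood on greenhouse benches under conventional care.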

[3] = system: TRZAWR Wheat, Winter, cv Riband; assay: Postemergence herbicidal evaluation, TRZAWR; type: in vivo, Triticum aestivum; parameters: scale not given here; conditions: postemergence spray, rated about two-three weeks after treatment
How it was run: as §1

[4] = system: IPOHE Morningglory, Ivyleaf; assay: Preemergence herbicidal evaluation, IPOHE; type: in vivo, Ipomoea hederacea, (L.) Jacq.; parameters: scale not given here; conditions: preemergence
How it was run: as §2

ECHOG Barnyardgrass [5] = assay: Preemergence herbicidal evaluation, ECHOG; type: in vivo, Echinochloa crus-galli, (L.) Beau; parameters: scale not given here; conditions: preemergence
How it was run: as §2

GALAP Galium [6] = assay: Preemergence herbicidal evaluation, GALAP; type: in vivo, Galium aparine; parameters: scale not given here; conditions: preemergence
How it was run: as §2

[7] = system: CHEAL Lambsquarters, Common; assay: Preemergence herbicidal evaluation, CHEAL; type: in vivo, Chenopodium album, L.; parameters: scale not given here; conditions: preemergence
How it was run: as §2

AMBEL Ragweed, Common [8] = assay: Postemergence herbicidal evaluation, AMBEL; type: in vivo, Ambrosia artemisifolia, L.; parameters: scale not given here; conditions: postemergence spray, rated about two-three weeks after treatment
How it was run: as §1

CASOB Sicklepod [9] = assay: Postemergence herbicidal evaluation, CASOB; type: in vivo, Cassia obtusifolia, L.; parameters: scale not given here; conditions: postemergence spray, rated about two-three weeks after treatment
How it was run: as §1

SETVI Foxtail, Green [10] = assay: Preemergence herbicidal evaluation, SETVI; type: in vivo, Setaria viridis, (L.) Beau; parameters: scale not given here; conditions: preemergence
How it was run: as §2

[11] = system: IPOHE Morningglory, Ivyleaf; assay: Postemergence herbicidal evaluation, IPOHE; type: in vivo, Ipomoea hederacea, (L.) Jacq.; parameters: scale not given here; conditions: postemergence spray, rated about two-three weeks after treatment
How it was run: as §1

[12] = system: CHEAL Lambsquarters, Common; assay: Postemergence herbicidal evaluation, CHEAL; type: in vivo, Chenopodium album, L.; parameters: scale not given here; conditions: postemergence spray, rated about two-three weeks after treatment
How it was run: as §1

ABUTH Velvetleaf [13] = assay: Preemergence herbicidal evaluation, ABUTH; type: in vivo, Abutilon theophrasti, Medic.; parameters: scale not given here; conditions: preemergence
How it was run: as §2

[14] = system: TRZAWR Wheat, Winter, cv Riband; assay: Preemergence herbicidal evaluation, TRZAWR; type: in vivo, Triticum aestivum; parameters: scale not given here; conditions: preemergence
How it was run: as §2

ECHOG Barnyardgrass [15] = assay: Postemergence herbicidal evaluation, ECHOG; type: in vivo, Echinochloa crus-galli, (L.) Beau; parameters: scale not given here; conditions: postemergence spray, rated about two-three weeks after treatment
How it was run: as §1

CASOB Sicklepod [16] = assay: Preemergence herbicidal evaluation, CASOB; type: in vivo, Cassia obtusifolia, L.; parameters: scale not given here; conditions: preemergence
How it was run: as §2

ZEAMX Corn, Field [17] = assay: Postemergence herbicidal evaluation, ZEAMX; type: in vivo, Zea mays, L. (Sammel-Bezeichnung); parameters: scale not given here; conditions: postemergence spray, rated about two-three weeks after treatment
How it was run: as §1

AMBEL Ragweed, Common [18] = assay: Preemergence herbicidal evaluation, AMBEL; type: in vivo, Ambrosia artemisifolia, L.; parameters: scale not given here; conditions: preemergence
How it was run: as §2

GALAP Galium [19] = assay: Postemergence herbicidal evaluation, GALAP; type: in vivo, Galium aparine; parameters: scale not given here; conditions: postemergence spray, rated about two-three weeks after treatment
How it was run: as §1

GLXMAW Soybean, Williams [20] = assay: Postemergence herbicidal evaluation, GLXMAW; type: in vivo, Glycine max, (L.) Merr. cv Williams; parameters: scale not given here; conditions: postemergence spray, rated about two-three weeks after treatment
How it was run: as §1

ZEAMX Corn, Field [21] = assay: Preemergence herbicidal evaluation, ZEAMX; type: in vivo, Zea mays, L. (Sammel-Bezeichnung); parameters: scale not given here; conditions: preemergence
How it was run: as §2

ORYSAT Rice, Tebonnet [22] = assay: Preemergence herbicidal evaluation, ORYSAT; type: in vivo, Oryza sativa, (L.); parameters: scale not given here; conditions: preemergence
How it was run: as §2

ORYSAT Rice, Tebonnet [23] = assay: Postemergence herbicidal evaluation, ORYSAT; type: in vivo, Oryza sativa, (L.); parameters: scale not given here; conditions: postemergence spray, rated about two-three weeks after treatment
How it was run: as §1

ABUTH Velvetleaf [24] = assay: Postemergence herbicidal evaluation, ABUTH; type: in vivo, Abutilon theophrasti, Medic.; parameters: scale not given here; conditions: postemergence spray, rated about two-three weeks after treatment
How it was run: as §1

COc1ccc(C)cc1-n1nnc2cc(F)c(-n3c(=O)cc(C(F)(F)F)n(C)c3=O)cc21 [Example 18, 3-[5-fluoro-1-(2-methoxy-5-methylphenyl)-1H-1,2,3-benzotriazol-6-yl]-1-methyl-6-(trifluoromethyl)-2,4(1H,3H)-pyrimidinedione]
5.5: Postemergence herbicidal rating TRZAWR ([3]; 0.032 kg/ha) | Postemergence herbicidal rating ZEAMX (ZEAMX Corn, Field [17]; 0.016 kg/ha) | Postemergence herbicidal rating ORYSAT (ORYSAT Rice, Tebonnet [23]; 0.032 kg/ha) | Postemergence herbicidal rating ORYSAT (ORYSAT Rice, Tebonnet [23]; 0.062 kg/ha)
6.0: ECHCG herbicidal rating (ECHOG Barnyardgrass [5]; rate 0.016 kg/ha) | Postemergence herbicidal rating AMBEL (AMBEL Ragweed, Common [8]; 0.016 kg/ha) | Postemergence herbicidal rating AMBEL (AMBEL Ragweed, Common [8]; 0.032 kg/ha) | Postemergence herbicidal rating CASOB (CASOB Sicklepod [9]; 0.032 kg/ha) | ABUTH herbicidal rating (ABUTH Velvetleaf [13]; rate 0.016 kg/ha) | TRZAWR herbicidal rating ([14]; rate 0.062 kg/ha) | Postemergence herbicidal rating ZEAMX (ZEAMX Corn, Field [17]; 0.032 kg/ha) | Postemergence herbicidal rating ZEAMX (ZEAMX Corn, Field [17]; 0.062 kg/ha) | AMBEL herbicidal rating (AMBEL Ragweed, Common [18]; rate 0.032 kg/ha) | Postemergence herbicidal rating GLXMAW (GLXMAW Soybean, Williams [20]; 0.062 kg/ha) | ORYSAT herbicidal rating (ORYSAT Rice, Tebonnet [22]; rate 0.032 kg/ha) | ORYSAT herbicidal rating (ORYSAT Rice, Tebonnet [22]; rate 0.062 kg/ha) | ORYSAT herbicidal rating (ORYSAT Rice, Tebonnet [22]; rate 0.125 kg/ha)
1.0: GALAP herbicidal rating (GALAP Galium [6]; rate 0.032 kg/ha) | Postemergence herbicidal rating AMBEL (AMBEL Ragweed, Common [8]; 0.008 kg/ha) | Postemergence herbicidal rating CHEAL ([12]; 0.008 kg/ha) | Postemergence herbicidal rating GALAP (GALAP Galium [19]; 0.008 kg/ha)
175 to 181 °C: melting point
4.5: GLXMAW herbicidal rating (GLXMAW Soybean, Williams [2]; rate 0.032 kg/ha) | Postemergence herbicidal rating TRZAWR ([3]; 0.016 kg/ha) | Postemergence herbicidal rating TRZAWR ([3]; 0.062 kg/ha) | Postemergence herbicidal rating ZEAMX (ZEAMX Corn, Field [17]; 0.008 kg/ha) | Postemergence herbicidal rating GLXMAW (GLXMAW Soybean, Williams [20]; 0.008 kg/ha) | Postemergence herbicidal rating GLXMAW (GLXMAW Soybean, Williams [20]; 0.016 kg/ha)
2.0: TRZAWR herbicidal rating ([14]; rate 0.016 kg/ha) | Postemergence herbicidal rating ECHCG (ECHOG Barnyardgrass [15]; 0.016 kg/ha) | Postemergence herbicidal rating ECHCG (ECHOG Barnyardgrass [15]; 0.032 kg/ha)
6.5: Postemergence herbicidal rating GLXMAW (GLXMAW Soybean, Williams [20]; 0.032 kg/ha)
5.0: Postemergence herbicidal rating SETVI (SETVI Foxtail, Green [1]; 0.016 kg/ha) | GALAP herbicidal rating (GALAP Galium [6]; rate 0.062 kg/ha) | CASOB herbicidal rating (CASOB Sicklepod [16]; rate 0.125 kg/ha) | Postemergence herbicidal rating GALAP (GALAP Galium [19]; 0.032 kg/ha) | Postemergence herbicidal rating GALAP (GALAP Galium [19]; 0.062 kg/ha) | ZEAMX herbicidal rating (ZEAMX Corn, Field [21]; rate 0.016 kg/ha) | ZEAMX herbicidal rating (ZEAMX Corn, Field [21]; rate 0.032 kg/ha)
8.0: IPOHE herbicidal rating ([4]; rate 0.062 kg/ha) | ECHCG herbicidal rating (ECHOG Barnyardgrass [5]; rate 0.032 kg/ha) | AMBEL herbicidal rating (AMBEL Ragweed, Common [18]; rate 0.125 kg/ha)
7.5: GLXMAW herbicidal rating (GLXMAW Soybean, Williams [2]; rate 0.062 kg/ha) | IPOHE herbicidal rating ([4]; rate 0.016 kg/ha)
3.5: Postemergence herbicidal rating TRZAWR ([3]; 0.008 kg/ha) | Postemergence herbicidal rating ORYSAT (ORYSAT Rice, Tebonnet [23]; 0.008 kg/ha)
2.5: CASOB herbicidal rating (CASOB Sicklepod [16]; rate 0.016 kg/ha)
0.5: CASOB herbicidal rating (CASOB Sicklepod [16]; rate 0.062 kg/ha)
3.0: GLXMAW herbicidal rating (GLXMAW Soybean, Williams [2]; rate 0.016 kg/ha) | TRZAWR herbicidal rating ([14]; rate 0.032 kg/ha) | Postemergence herbicidal rating GALAP (GALAP Galium [19]; 0.016 kg/ha) | ORYSAT herbicidal rating (ORYSAT Rice, Tebonnet [22]; rate 0.016 kg/ha)
7.0: Postemergence herbicidal rating CASOB (CASOB Sicklepod [9]; 0.016 kg/ha) | Postemergence herbicidal rating CASOB (CASOB Sicklepod [9]; 0.062 kg/ha) | Postemergence herbicidal rating CHEAL ([12]; 0.016 kg/ha) | TRZAWR herbicidal rating ([14]; rate 0.125 kg/ha) | ZEAMX herbicidal rating (ZEAMX Corn, Field [21]; rate 0.062 kg/ha)
0.0: Postemergence herbicidal rating SETVI (SETVI Foxtail, Green [1]; 0.008 kg/ha) | Postemergence herbicidal rating CASOB (CASOB Sicklepod [9]; 0.008 kg/ha) | Postemergence herbicidal rating ECHCG (ECHOG Barnyardgrass [15]; 0.008 kg/ha) | CASOB herbicidal rating (CASOB Sicklepod [16]; rate 0.032 kg/ha)
4.0: Postemergence herbicidal rating ECHCG (ECHOG Barnyardgrass [15]; 0.062 kg/ha) | AMBEL herbicidal rating (AMBEL Ragweed, Common [18]; rate 0.016 kg/ha) | Postemergence herbicidal rating ORYSAT (ORYSAT Rice, Tebonnet [23]; 0.016 kg/ha)
8.5: ZEAMX herbicidal rating (ZEAMX Corn, Field [21]; rate 0.125 kg/ha)
9.0: Postemergence herbicidal rating SETVI (SETVI Foxtail, Green [1]; 0.032 kg/ha) | Postemergence herbicidal rating SETVI (SETVI Foxtail, Green [1]; 0.062 kg/ha) | GLXMAW herbicidal rating (GLXMAW Soybean, Williams [2]; rate 0.125 kg/ha) | IPOHE herbicidal rating ([4]; rate 0.032 kg/ha) | IPOHE herbicidal rating ([4]; rate 0.125 kg/ha) | ECHCG herbicidal rating (ECHOG Barnyardgrass [5]; rate 0.062 kg/ha) | ECHCG herbicidal rating (ECHOG Barnyardgrass [5]; rate 0.125 kg/ha) | GALAP herbicidal rating (GALAP Galium [6]; rate 0.125 kg/ha) | CHEAL herbicidal rating ([7]; rate 0.016 kg/ha) | CHEAL herbicidal rating ([7]; rate 0.032 kg/ha) | CHEAL herbicidal rating ([7]; rate 0.062 kg/ha) | CHEAL herbicidal rating ([7]; rate 0.125 kg/ha) | Postemergence herbicidal rating AMBEL (AMBEL Ragweed, Common [8]; 0.062 kg/ha) | SETVI herbicidal rating (SETVI Foxtail, Green [10]; rate 0.016 kg/ha) | SETVI herbicidal rating (SETVI Foxtail, Green [10]; rate 0.032 kg/ha) | SETVI herbicidal rating (SETVI Foxtail, Green [10]; rate 0.062 kg/ha) | SETVI herbicidal rating (SETVI Foxtail, Green [10]; rate 0.125 kg/ha) | Postemergence herbicidal rating IPOHE ([11]; 0.008 kg/ha) | Postemergence herbicidal rating IPOHE ([11]; 0.016 kg/ha) | Postemergence herbicidal rating IPOHE ([11]; 0.032 kg/ha) | Postemergence herbicidal rating IPOHE ([11]; 0.062 kg/ha) | Postemergence herbicidal rating CHEAL ([12]; 0.032 kg/ha) | Postemergence herbicidal rating CHEAL ([12]; 0.062 kg/ha) | ABUTH herbicidal rating (ABUTH Velvetleaf [13]; rate 0.032 kg/ha) | ABUTH herbicidal rating (ABUTH Velvetleaf [13]; rate 0.062 kg/ha) | ABUTH herbicidal rating (ABUTH Velvetleaf [13]; rate 0.125 kg/ha) | AMBEL herbicidal rating (AMBEL Ragweed, Common [18]; rate 0.062 kg/ha) | Postemergence herbicidal rating ABUTH (ABUTH Velvetleaf [24]; 0.008 kg/ha) | Postemergence herbicidal rating ABUTH (ABUTH Velvetleaf [24]; 0.016 kg/ha) | Postemergence herbicidal rating ABUTH (ABUTH Velvetleaf [24]; 0.032 kg/ha) | Postemergence herbicidal rating ABUTH (ABUTH Velvetleaf [24]; 0.062 kg/ha)

From patent US20020111274A1, “1-alkyl-3-[1-(substituted phenyl) benzotriazol-6-yl] uracils” (BASF Aktiengesellschaft, priority 2000, published 2002)
